Results: patent publication US9234002B2, “Small peptide specific for lung cancer and application thereof” (Guangzhou Peptide Medical Technology Co., Ltd., priority 2012, dated 2016)

Experiments:
[1] = test system: NCI-H1975 (adenocarcinoma) and L78 (squamous carcinoma); experiment: Median survival of lung cancer bearing nude mice after treatment; format: in vivo, human; settings: tumor bearing nude mice, tail vein injection
Procedure: Two human lung cancer cell lines comprising NCI-H1975 (adenocarcinoma) and L78 (squamous carcinoma) were maintained in RPMI 1640 (GIBCO, Mississauga, Canada) supplemented with 10% heat-inactivated calf serum (HyClone, Logan, Utah) and L-glutamine (Beyotime, Jiangsu, China) in an incubator at 37° C. with 5% CO2. Cells were harvested with trypsin/EDTA, washed with PAS twice and re-suspended in free serum culture medium at a concentration of 5×10^6 cells/mL. The suspended cells (0.2 mL) were inoculated s.c. into the back of nude mice to establish the lung cancer models, respectively. There are twelve nude mice in each group of cancer model. Tumor growth and general states such as mental, diet and weight were monitored periodically. When tumors reached approximately 1 cm in mean diameter, the tumor bearing mice were used in therapeutic efficacy studies.
The tumor size was measured two dimensionally on days 3, 6, 9, 12, 15, 18, 21, 24, 27 and 30 after injection, while mice weight was also determined. The tumor volume was calculated by the formula volume V=(4/3)×π×R1×R2, where R1 is radius 1 and R2 is radius 2 and R1<R2. Growth curves of the tumors were constructed according to these tumor volumes.

[2] = Toxicity of radiotherapeutic agent in mice bearing lung cancer cells (hematology, serum biochemistry, histopathology); format: in vivo
Procedure: After treatment with radiotherapeutic agent for three weeks, the mice were sacrificed and the major tissues or organs such as blood, liver, kidneys, heart, lungs and spleen were removed completely. A routine blood test was performed using an automatic hematology analyzer to measure the following parameters: white blood cell (WBC), red blood cell (RBC) and platelet (PLT) count. Clinical biochemicals parameters measured with an automated biochemical analyzer were aspartate transferase (AST), alanine transferase (ALT), blood urea nitrogen (BUN) and creatinine (CRE). Histopathological and ultrastructural observations were performed on the preserved organs and tissues stated above.

[3] = mice bearing lung cancer (24 h)

## [131I-].[Na+] [^131I, iodine-131]
[1]
  median survival time: 42 days
[2]; [3]
  ALT: 60.7 ± 7.8 U/L
  AST: 171.7 ± 0.8 U/L
  BUN: 9.4 ± 1.3 mmol/L
  CRE: 42.7 ± 3.8 µmol/L
  PLT: 991.2 ± 52.5 G/L
  RBC: 7.8 ± 0.2 T/L
  WBC: 13.6 ± 0.7 G/L
[2]; mice bearing lung cancer cells
  leukocyte count versus control: decrease
